# Patent US20150064234A1, “4-AMINOPYRIDINE AS A THERAPEUTIC AGENT FOR SPINAL MUSCULAR ATROPHY” (THE TRUSTEES OF COLUMBIA UNIVERSITY IN THE CITY OF NEW YORK, priority 2012, published 2015)
# “Also recorded” adds a separate entry of the source.
# Assays:
# Drosophila smn mutants = experiment: Rescue of Drosophila smn mutant phenotypes by K+ channel antagonists; conditions: treatment with K+ channel antagonist; 4-(dimethylamino)pyridine data not shown
# [1] = tested on: canine hereditary motor neuron disease; conditions: canine hereditary motor neuron disease (Pinter et al., 1997); cited from earlier work
# [2] = tested on: Canton S (CS) control larvae
# [3] = tested on: other sodium, calcium, and potassium conductances; conditions: at concentration of 1 mM; cited from earlier work
# MS patients = conditions: cited from earlier work
# [4] = tested on: smn^x7/smn^x7 mutant larvae; experiment: Larval locomotion assay, smn mutant larvae; format: in vivo, Drosophila
# [5] = tested on: smn^x7/smn^x7 mutant larvae; experiment: NMJ electrophysiology (eEPSP), smn mutant larvae; format: in vivo, Drosophila
# [6] = tested on: Canton S (CS) control larvae; remark: listed apart in the source
# Shaker channels = conditions: at concentration of 1 mM; cited from earlier work
# [7] = tested on: smn^x7/smn^x7 mutant larvae; experiment: Muscle area measurement, smn mutant larvae cultured on 4-AP
# wild-type larvae = experiment: Titration of 4-AP in larval media for tolerability
# tetrodotoxin toxicity = conditions: in vivo; cited from earlier work
# [8] = tested on: Canton S (CS) control larvae; remark: listed apart in the source
# [9] = tested on: smn^x7/smn^x7 mutant larvae; experiment: Spontaneous motor rhythm recording, smn mutant larvae; format: in vivo, Drosophila
# [10] = tested on: Canton S (CS) control larvae; experiment: Muscle area measurement, control larvae cultured on 4-AP
# [11] = CS control larvae treated with 2 mM 4-AP, ± SEM
# [12] = smn mutants, 2 mM 4-AP, compared with 4-AP treated controls
# [13] = smn^x7/smn^x7 larvae treated with 2 mM 4-AP, ± SEM
# [14] = control animals, 2 mM 4-AP, P<0.01
compound,measurement,setting,value
CN(C)c1ccncc1 [4-(dimethylamino) pyridine],effect on Drosophila smn mutant phenotypes,Drosophila smn mutants,rescued
"Nc1ccncc1 [4-AP, 4-aminopyridine]",effect on muscle twitch tension,[1],can improve
same,eEPSP amplitude,[2]; [11],26.67 ± 2.91 mV
same,reduction of NMJ eEPSP amplitudes,"[2]; control animals, 2 mM 4-AP, P<0.001",21%
same,"effect on other sodium, calcium, and potassium conductances",[3],without significant effect
same,patients with clinically important motor and visual improvements,"MS patients; 17 temperature-sensitive MS patients, 7.5 to 52.5 mg in one to three daily doses, 1 to 5 days, thirteen of 17",76%
same,side effects,"MS patients; 17 temperature-sensitive MS patients, 7.5 to 52.5 mg",No serious side effects
same,mean duration of improvements for two consecutive doses,MS patients; average 8.53-hour treatment-observation period,7.07 h
same,initial responders with long-term benefits,MS patients; long-term study (32 months),80-90%
same,duration of improvements as share of treatment-observation period,"MS patients; two consecutive doses, average 8.53-hour period",83%
same,increase of locomotion,"[4]; smn mutants grown on 2 mM 4-AP media, P<0.05",55%
same,effect on locomotion,[4]; [12],corrects; also recorded: significantly increased
same,Locomotion,[4]; [13],2.65 ± 0.10 cm/min
same,effect on Drosophila smn mutant phenotypes,Drosophila smn mutants,positively benefitted; also recorded: rescued
same,reduction of increased NMJ EPSP amplitude,"[5]; smn mutants treated with 2 mM 4-AP, P<0.001",27%
same,effect on NMJ neurotransmitter release / eEPSP amplitude,[5]; [12],corrects; also recorded: fully corrected
same,eEPSP amplitude,[5]; [13],32.40 ± 2.48 mV
same,Inter-spike interval,[6]; [11],68.89 ± 4.23 ms
same,effect on motor rhythm,"[6]; control animals, 2 mM 4-AP",inhibits
same,decrease of rhythmic motor activity,[6]; [14],40%
same,inhibition of Shaker channels,Shaker channels,selectively and reversibly inhibits
same,increase of muscle surface area compared to untreated smn mutants,"[7]; smn mutants grown on 2 mM 4-AP media, P<0.001",66%
same,effect on muscle size,"[7]; smn mutants, 2 mM 4-AP",increases; also recorded: significantly increased
same,Muscle 6 area,"[7]; smn^x7/smn^x7 larvae treated with 2 mM 4-AP throughout larval period, ± SEM",29.60 ± 3.09 ×10^3 × μm^2
same,maximum dosage tolerated without lethality,"wild-type larvae; added to larval media, wild-type larvae",2 mM
same,toxicity at maximum tolerated dose,"wild-type larvae; control animals, 2 mM throughout larval period",mild systemic toxicity
same,effect on tetrodotoxin toxicity,tetrodotoxin toxicity,reverse tetrodotoxin toxicity
same,Locomotion,[8]; [11],3.06 ± 0.40 cm/min
same,reduction of larval locomotion,[8]; [14],35%
same,remaining increase in inter-spike interval above controls treated with 4-AP,"[9]; smn mutants grown on 2 mM 4-AP media, p<0.001",31%
same,effect on defects in motor rhythm,"[9]; smn mutants, 2 mM 4-AP",substantially improved; also recorded: substantially corrects; also recorded: fully corrected
same,Inter-spike interval,[9]; [13],89.98 ± 4.98 ms
same,Muscle 6 area,"[10]; CS control larvae treated with 2 mM 4-AP throughout larval period, ± SEM",38.08 ± 3.49 ×10^3 × μm^2
same,effect on muscle size,"[10]; control / wild-type animals, 2 mM 4-AP",no effect; also recorded: does not alter; also recorded: did not affect
